Data: US8729061B2, “Pyrrolidine derivatives” (Hoffmann-La Roche Inc., priority 2011, dated 2014)

Columns and labels:
Type in all cases: biochemical
[1] = target: human Cathepsin S (Homo sapiens (Human), UniProt P25774); experiment: Cathepsin enzyme inhibition assay (fluorogenic peptide substrate), Cat S; details: enzyme 1 nM, substrate Z-Val-Val-Arg-AMC 20 μM, pH 6.5
Method: (§1) Enzyme activity is measured by observing the increase in fluorescence intensity caused by cleavage of a peptide substrate containing a fluorophore whose emission is quenched in the intact peptide.
(§2) Assay buffer: 100 mM potassium phosphate pH 6.5, EDTA-Na 5 mM, Triton X-100 0.001%, DTT 5 mM.
(§3) Enzymes (all at 1 nM): human and mouse Cathepsin S, Cat K, Cat B, Cat L. Substrate (20 μM): Z-Val-Val-Arg-AMC, except for Cat K which uses Z-Leu-Arg-AMC (both from Bachem).
(§4) Excitation 360 nm, Emission 465 nm.
(§5) Enzyme is added to the substance dilutions in 96-well microtitre plates and the reaction is started with substrate. […] IC50 are calculated by standard methods. Inhibition of human Cat S, mouse Cat S, human Cat K, mouse Cat K, human Cat B, mouse Cat B, human Cat L and mouse Cat L have been measured separately.

[2] = target: human Cat L (Homo sapiens (Human), UniProt P07711); experiment: Cathepsin enzyme inhibition assay (fluorogenic peptide substrate), Cat L; details: enzyme 1 nM, substrate Z-Val-Val-Arg-AMC 20 μM, pH 6.5
Method: as §1, §2, §3, §4, §5

[3] = target: human Cat K (Homo sapiens (Human), UniProt P43235); experiment: Cathepsin enzyme inhibition assay (fluorogenic peptide substrate), Cat K; details: enzyme 1 nM, substrate Z-Leu-Arg-AMC 20 μM, pH 6.5
Method: as §1, §2, §3, §4, §5

[4] = target: human Cat B (Homo sapiens (Human), UniProt P07858); experiment: Cathepsin enzyme inhibition assay (fluorogenic peptide substrate), Cat B; details: enzyme 1 nM, substrate Z-Val-Val-Arg-AMC 20 μM, pH 6.5
Method: as §1, §2, §3, §4, §5

Chain of human Cathepsin S (P25774 115-331): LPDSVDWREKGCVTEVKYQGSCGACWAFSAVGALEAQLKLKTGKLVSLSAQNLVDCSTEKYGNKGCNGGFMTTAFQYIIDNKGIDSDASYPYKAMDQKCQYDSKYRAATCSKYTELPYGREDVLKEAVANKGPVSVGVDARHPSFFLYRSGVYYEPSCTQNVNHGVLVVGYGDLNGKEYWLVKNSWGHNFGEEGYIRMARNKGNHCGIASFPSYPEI
Chain of human Cat L (P07711 114-333): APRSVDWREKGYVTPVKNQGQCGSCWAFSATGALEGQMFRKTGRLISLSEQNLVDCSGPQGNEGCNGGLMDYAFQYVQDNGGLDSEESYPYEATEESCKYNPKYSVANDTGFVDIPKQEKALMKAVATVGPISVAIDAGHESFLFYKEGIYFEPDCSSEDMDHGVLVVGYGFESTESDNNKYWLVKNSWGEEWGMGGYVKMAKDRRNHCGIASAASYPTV
Chain of human Cat K (P43235 115-329): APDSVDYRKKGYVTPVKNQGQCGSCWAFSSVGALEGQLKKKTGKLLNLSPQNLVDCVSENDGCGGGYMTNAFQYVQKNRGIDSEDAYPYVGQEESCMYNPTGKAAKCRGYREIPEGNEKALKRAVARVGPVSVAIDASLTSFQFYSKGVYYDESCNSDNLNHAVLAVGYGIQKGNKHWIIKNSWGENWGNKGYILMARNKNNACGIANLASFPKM

Structure (SMILES)	IC50 [1] [nM]	IC50 [2] [nM]	IC50 [3] [nM]	IC50 [4] [nM]
CCC[C@H](NC(=O)[C@@H]1C[C@@H](S(=O)(=O)c2ccccc2Cl)CN1C(=O)C1(c2ccc(Cl)cc2)CC1)C(=O)C(=O)NC1CC1 [Example 9, (2S,4R)-1-(1-(4-chlorophenyl)cyclopropanecarbonyl)-4-(2-chlorophenylsulfonyl)-N—((S)-1-(cyclopropylamino)-1,2-dioxohexan-3-yl)pyrrolidine-2-carboxamide]	0.367	4.7	19.6	43.3
C[C@H](NC(=O)[C@@H]1C[C@@H](S(=O)(=O)c2ccccc2Cl)CN1C(=O)C1(c2ccc(Cl)cc2)CC1)C(=O)C(=O)NC1CC1 [Example 34, (2S,4R)-1-(1-(4-chlorophenyl)cyclopropanecarbonyl)-4-(2-chlorophenylsulfonyl)-N—((S)-4-(cyclopropylamino)-3,4-dioxobutan-2-yl)pyrrolidine-2-carboxamide]	0.787	28	444	399
CC[C@H](NC(=O)[C@@H]1C[C@@H](S(=O)(=O)c2ccc(F)cc2Cl)CN1C(=O)C1(c2ccc(Cl)cc2)CC1)C(=O)C(=O)NC1CC1 [Example 39, (2S,4R)-4-(2-chloro-4-fluorophenylsulfonyl)-1-(1-(4-chlorophenyl)cyclopropanecarbonyl)-N—((S)-1-(cyclopropylamino)-1,2-dioxopentan-3-yl)pyrrolidine-2-carboxamide]	0.558	11.4	63.6	140
CC[C@H](NC(=O)[C@@H]1C[C@@H](S(=O)(=O)c2ccccc2C(F)(F)F)CN1C(=O)C1(c2ncc(Cl)cc2F)CC1)C(=O)C(=O)NC1CC1 [Example 19, (2S,4R)-1-(1-(5-chloro-3-fluoropyridin-2-yl)cyclopropanecarbonyl)-N—((S)-1-(cyclopropylamino)-1,2-dioxopentan-3-yl)-4-(2-(trifluoromethyl)phenylsulfonyl)pyrrolidine-2-carboxamide]	0.593	32.4	758	424
CC[C@H](NC(=O)[C@@H]1C[C@@H](S(=O)(=O)c2ccccc2Cl)CN1C(=O)C1(c2ccc(Br)cc2)CC1)C(=O)C(=O)NC1CC1 [Example 15, (2S,4R)-1-(1-(4-bromophenyl)cyclopropanecarbonyl)-4-(2-chlorophenylsulfonyl)-N—((S)-1-(cyclopropylamino)-1,2-dioxopentan-3-yl)pyrrolidine-2-carboxamide]	0.52	8.2	44.8	98.5
O=C(NC1CC1)C(=O)C1(NC(=O)[C@@H]2C[C@@H](S(=O)(=O)c3ccccc3Cl)CN2C(=O)C2(c3ccc(Cl)cc3)CC2)CC1 [Example 27, (2S,4R)-1-(1-(4-chlorophenyl)cyclopropanecarbonyl)-4-(2-chlorophenylsulfonyl)-N-(1-(2-(cyclopropylamino)-2-oxoacetyl)cyclopropyl)pyrrolidine-2-carboxamide]	17.9	6800	25000	25000
CC[C@H](NC(=O)[C@@H]1C[C@@H](S(=O)(=O)c2ccc(F)cc2C(F)(F)F)CN1c1cc(C)nn1C1CCC1)C(=O)C(=O)NC1CC1 [Example 4, (2S,4R)-1-(1-cyclobutyl-3-methyl-1H-pyrazol-5-yl)-N—((S)-1-(cyclopropylamino)-1,2-dioxopentan-3-yl)-4-(4-fluoro-2-(trifluoromethyl)phenylsulfonyl)pyrrolidine-2-carboxamide]	2.98	551	5890	2920
CCCCNC(=O)C(=O)[C@H](CCC)NC(=O)[C@@H]1C[C@@H](S(=O)(=O)c2ccccc2Cl)CN1C(=O)C1(c2ccc(Cl)cc2)CC1 [Example 32, (2S,4R)—N—((S)-1-(butylamino)-1,2-dioxohexan-3-yl)-1-(1-(4-chlorophenyl)cyclopropanecarbonyl)-4-(2-chlorophenylsulfonyl)pyrrolidine-2-carboxamide]	0.734	7.7	24	29.4

Results, then the compound that gave them:

IC50 [1] [nM]	IC50 [2] [nM]	IC50 [3] [nM]	IC50 [4] [nM]	Structure (SMILES)
2.57	20.6	65.4	101	CC[C@H](NC(=O)[C@@H]1C[C@@H](S(=O)(=O)c2ccc(N3CCOCC3)cc2Cl)CN1C(=O)C1(c2ccc(Cl)cc2)CC1)C(=O)C(=O)NC1CC1 [Example 56, (2S,4R)-4-(2-chloro-4-morpholinophenylsulfonyl)-1-(1-(4-chlorophenyl)cyclopropanecarbonyl)-N—((S)-1-(cyclopropylamino)-1,2-dioxopentan-3-yl)pyrrolidine-2-carboxamide]
0.63	2.6	82	85.4	CC[C@H](NC(=O)[C@@H]1C[C@@H](S(=O)(=O)c2ccccc2Cl)CN1C(=O)C1(c2ccc(Cl)cc2)CC1)C(=O)C(=O)NCCOC [Example 54, (2S,4R)-1-(1-(4-chlorophenyl)cyclopropanecarbonyl)-4-(2-chlorophenylsulfonyl)-N—((S)-1-(2-methoxyethylamino)-1,2-dioxopentan-3-yl)pyrrolidine-2-carboxamide]
5.98	67.1	251	224	CCC[C@H](NC(=O)[C@@H]1C[C@@H](S(=O)(=O)c2ccc(O[C@@H](C)C(F)(F)F)cc2Cl)CN1C(=O)C1(c2ccc(Cl)cc2)CC1)C(=O)C(=O)NC1CC1 [Example 46, (2S,4R)-4-(2-chloro-4-((S)-1,1,1-trifluoropropan-2-yloxy)phenylsulfonyl)-1-(1-(4-chlorophenyl)cyclopropanecarbonyl)-N—((S)-1-(cyclopropylamino)-1,2-dioxohexan-3-yl)pyrrolidine-2-carboxamide]
0.568	11.7	152	187	CCC[C@H](NC(=O)[C@@H]1C[C@@H](S(=O)(=O)c2ccccc2Cl)CN1C(=O)C1(c2ccc(Cl)cc2)CC1)C(=O)C(=O)NC(C)C [Example 41, (2S,4R)-1-(1-(4-chlorophenyl)cyclopropanecarbonyl)-4-(2-chlorophenylsulfonyl)-N—((S)-1-(isopropylamino)-1,2-dioxohexan-3-yl)pyrrolidine-2-carboxamide]
2.93	6.2	106	172	CCCCNC(=O)C(=O)[C@H](CCC)NC(=O)[C@@H]1C[C@@H](S(=O)(=O)c2ccccc2Cl)CN1C(=O)C1(c2ncc(Cl)cc2F)CC1 [Example 61, (2S,4R)—N—((S)-1-(butylamino)-1,2-dioxohexan-3-yl)-1-(1-(5-chloro-3-fluoropyridin-2-yl)cyclopropanecarbonyl)-4-(2-chlorophenylsulfonyl)pyrrolidine-2-carboxamide]
0.527	9.4	35	83.2	CCC[C@H](NC(=O)[C@@H]1C[C@@H](S(=O)(=O)c2ccc(F)cc2Cl)CN1C(=O)C1(c2ccc(Cl)cc2)CC1)C(=O)C(=O)NC1CC1 [Example 48, (2S,4R)-4-(2-chloro-4-fluorophenylsulfonyl)-1-(1-(4-chlorophenyl)cyclopropanecarbonyl)-N—((S)-1-(cyclopropylamino)-1,2-dioxohexan-3-yl)pyrrolidine-2-carboxamide]
